± gives the expanded uncertainty stated by the source.
Settings: Liquid, Closed cell (Static) method

FC(F)(F)C(F)(F)C(F)(F)C(F)(F)F [decafluorobutane]
Settings | vapor or sublimation pressure [kPa]
263.15 K | 72.7 ± 0.5
268.12 K | 89.6 ± 0.5
273.09 K | 109.4 ± 0.5
278 K | 132.4 ± 0.6
282.99 K | 159 ± 0.6
287.91 K | 189.3 ± 0.7
292.97 K | 225.4 ± 0.8
297.95 K | 265.3 ± 0.8
302.9 K | 310.2 ± 0.9
308.21 K | 364.3 ± 1.1
312.88 K | 417.8 ± 1.2
317.88 K | 481.2 ± 1.4
323.22 K | 556.4 ± 1.5
328.15 K | 633.7 ± 1.7
332.91 K | 716.1 ± 2
337.93 K | 811 ± 2.2
342.91 K | 913 ± 2.5
347.93 K | 1025.8 ± 2.8
352.92 K | 1149.2 ± 3.1
357.1 K | 1261.3 ± 3.4
363.13 K | 1437.8 ± 3.8
368.03 K | 1594.1 ± 4.3
373.25 K | 1775.9 ± 4.7
376.88 K | 1912.1 ± 5.1
379.05 K | 1997.7 ± 5.3

COC [dimethyl ether]
Settings | vapor or sublimation pressure [kPa]
296.78 K | 571.9 ± 1.2
303.46 K | 690.2 ± 1.3
308.54 K | 793.1 ± 1.5
312.26 K | 875.3 ± 1.7
317.17 K | 993.3 ± 1.8
322.08 K | 1122 ± 2.1
327.08 K | 1265.6 ± 2.3
332.09 K | 1423.5 ± 2.6
337 K | 1591.1 ± 2.9
341.97 K | 1773.8 ± 3.2
347 K | 1976.2 ± 3.5
351.89 K | 2187.4 ± 3.9
356.91 K | 2422.2 ± 4.2
361.94 K | 2675.2 ± 4.7
366.96 K | 2946.3 ± 5.1
371.84 K | 3230.3 ± 5.6
376.91 K | 3546.4 ± 6.1
379.82 K | 3739 ± 6.4
382.88 K | 3950.3 ± 6.8
385.83 K | 4161.9 ± 7.1
387.81 K | 4309.6 ± 7.4
389.81 K | 4463.7 ± 7.6
391.86 K | 4625.6 ± 7.9
393.81 K | 4783 ± 8.1
395.74 K | 4943.6 ± 8.4

From the NIST ThermoML archive (doi:10.1016/j.fluid.2011.11.026)
